Source: ChEMBL document CHEMBL3885861, “Open TG-GATES”

Species on record: Rattus norvegicus
Assay: Open TG-GATES - Regimen: Single
Type: toxicity, organism-based, Sprague-Dawley
Set-up: regimen Single, gender Male, age 6 weeks
Conditions: in vivo, po, 6 mg/kg, route gavage, dose level Low; for APTT / Bas / Eos / Fbg / Hb / Ht / Lym / MCH / MCHC / MCV / Mono / Neu / PT / Plat / RBC / Ret / WBC: tissue Blood; for LIVER: tissue Liver; for A/G / ALP / ALT / AST / BUN / CRE / Ca / Cl / DBIL / GLC / IP / K / LDH / Na / PL / RALB / TBIL / TC / TG / TP / gamma-GTP: tissue Plasma

Q: How did the TERMINAL_BW (3 h) turn out when O=[N+]([O-])c1ccc(O)c([N+](=O)[O-])c1 [2,4-DINITROPHENOL] was run?
A: 204.4 g

Q: What about the APTT (3 h) of the same molecule?
A: 17 s

Q: What about the Bas (3 h) of the same molecule?
A: 0%

Q: What about the Eos (3 h) of the same molecule?
A: 0.8%

Q: What about the Fbg (3 h) of the same molecule?
A: 232 mg/dL

Q: And the Hb (3 h)?
A: 12.9 g/dL

Q: And the Ht (3 h)?
A: 38.5%

Q: And the Lym (3 h)?
A: 74.8%

Q: And the MCH (3 h)?
A: 21.6 pg

Q: What about the MCHC (3 h) of the same molecule?
A: 33.5%

Q: And the MCV (3 h)?
A: 64.6 fL

Q: And the Mono (3 h)?
A: 9.6%

Q: And the Neu (3 h)?
A: 14.8%

Q: What about the PT (3 h) of the same molecule?
A: 12.2 s

Q: What about the Plat (3 h) of the same molecule?
A: 124.6 x10_4/uL

Q: What about the RBC (3 h) of the same molecule?
A: 595.6 x10_4/ul

Q: What about the Ret (3 h) of the same molecule?
A: 9.1%

Q: And the WBC (3 h)?
A: 105.2 x10_2/uL

Q: And the LIVER (3 h)?
A: 9.7 g

Q: And the A/G (3 h)?
A: 2.4

Q: What about the ALP (3 h) of the same molecule?
A: 1437.4 IU/L

Q: And the ALT (3 h)?
A: 38 IU/L

Q: What about the AST (3 h) of the same molecule?
A: 69 IU/L

Q: What about the BUN (3 h) of the same molecule?
A: 11 mg/dL

Q: What about the CRE (3 h) of the same molecule?
A: 0.4 mg/dL

Q: And the Ca (3 h)?
A: 11.2 mg/dL

Q: And the Cl (3 h)?
A: 103.2 meq/L

Q: What about the DBIL (3 h) of the same molecule?
A: 0.014 mg/dL

Q: What about the GLC (3 h) of the same molecule?
A: 185.2 mg/dL

Q: What about the IP (3 h) of the same molecule?
A: 10.4 mg/dL

Q: What about the K (3 h) of the same molecule?
A: 4.3 meq/L

Q: What about the LDH (3 h) of the same molecule?
A: 110.2 IU/L

Q: And the Na (3 h)?
A: 138.4 meq/L

Q: What about the PL (3 h) of the same molecule?
A: 139.8 mg/dL

Q: What about the RALB (3 h) of the same molecule?
A: 3.8 g/dL

Q: What about the TBIL (3 h) of the same molecule?
A: 0.046 mg/dL

Q: What about the TC (3 h) of the same molecule?
A: 79 mg/dL

Q: And the TG (3 h)?
A: 57 mg/dL

Q: And the TP (3 h)?
A: 5.4 g/dL

Q: What about the gamma-GTP (3 h) of the same molecule?
A: 0 IU/L

Q: And the TERMINAL_BW (6 h)?
A: 202.3 g

Q: What about the APTT (6 h) of the same molecule?
A: 16.3 s

Q: What about the Bas (6 h) of the same molecule?
A: 0%

Q: What about the Eos (6 h) of the same molecule?
A: 1%

Q: And the Fbg (6 h)?
A: 252.2 mg/dL

Q: And the Hb (6 h)?
A: 13 g/dL

Q: What about the Ht (6 h) of the same molecule?
A: 38.9%

Q: What about the Lym (6 h) of the same molecule?
A: 73%

Q: What about the MCH (6 h) of the same molecule?
A: 21.3 pg

Q: What about the MCHC (6 h) of the same molecule?
A: 33.4%

Q: What about the MCV (6 h) of the same molecule?
A: 63.9 fL

Q: And the Mono (6 h)?
A: 10%

Q: What about the Neu (6 h) of the same molecule?
A: 16.4%

Q: And the PT (6 h)?
A: 12.1 s

Q: What about the Plat (6 h) of the same molecule?
A: 124.2 x10_4/uL

Q: What about the RBC (6 h) of the same molecule?
A: 608.6 x10_4/ul

Q: What about the Ret (6 h) of the same molecule?
A: 9.3%

Q: What about the WBC (6 h) of the same molecule?
A: 116.8 x10_2/uL

Q: And the LIVER (6 h)?
A: 9.2 g

Q: And the A/G (6 h)?
A: 2.4

Q: And the ALP (6 h)?
A: 1588.6 IU/L

Q: And the ALT (6 h)?
A: 35.4 IU/L

Q: And the AST (6 h)?
A: 69.2 IU/L

Q: What about the BUN (6 h) of the same molecule?
A: 10.6 mg/dL

Q: What about the CRE (6 h) of the same molecule?
A: 0.4 mg/dL

Q: What about the Ca (6 h) of the same molecule?
A: 10.9 mg/dL

Q: What about the Cl (6 h) of the same molecule?
A: 105.2 meq/L

Q: What about the DBIL (6 h) of the same molecule?
A: 0.012 mg/dL

Q: What about the GLC (6 h) of the same molecule?
A: 198 mg/dL

Q: What about the IP (6 h) of the same molecule?
A: 9.3 mg/dL

Q: And the K (6 h)?
A: 4.4 meq/L

Q: What about the LDH (6 h) of the same molecule?
A: 135.6 IU/L

Q: And the Na (6 h)?
A: 139 meq/L

Q: What about the PL (6 h) of the same molecule?
A: 154 mg/dL

Q: And the RALB (6 h)?
A: 3.9 g/dL

Q: And the TBIL (6 h)?
A: 0.05 mg/dL

Q: What about the TC (6 h) of the same molecule?
A: 92.4 mg/dL

Q: What about the TG (6 h) of the same molecule?
A: 61.4 mg/dL

Q: And the TP (6 h)?
A: 5.6 g/dL

Q: What about the gamma-GTP (6 h) of the same molecule?
A: 0 IU/L

Q: What about the TERMINAL_BW (9 h) of the same molecule?
A: 199.2 g

Q: And the APTT (9 h)?
A: 15.6 s

Q: And the Bas (9 h)?
A: 0%

Q: And the Eos (9 h)?
A: 1%

Q: What about the Fbg (9 h) of the same molecule?
A: 244.6 mg/dL

Q: And the Hb (9 h)?
A: 12.9 g/dL

Q: What about the Ht (9 h) of the same molecule?
A: 38.5%

Q: And the Lym (9 h)?
A: 72%

Q: What about the MCH (9 h) of the same molecule?
A: 21.7 pg

Q: What about the MCHC (9 h) of the same molecule?
A: 33.5%

Q: What about the MCV (9 h) of the same molecule?
A: 64.7 fL

Q: And the Mono (9 h)?
A: 12.8%

Q: What about the Neu (9 h) of the same molecule?
A: 14.4%

Q: What about the PT (9 h) of the same molecule?
A: 11.9 s

Q: And the Plat (9 h)?
A: 125.6 x10_4/uL

Q: And the RBC (9 h)?
A: 595 x10_4/ul

Q: And the Ret (9 h)?
A: 8.8%

Q: What about the WBC (9 h) of the same molecule?
A: 87.8 x10_2/uL

Q: And the LIVER (9 h)?
A: 8.6 g

Q: What about the A/G (9 h) of the same molecule?
A: 2.5

Q: What about the ALP (9 h) of the same molecule?
A: 1398.6 IU/L

Q: And the ALT (9 h)?
A: 31.4 IU/L

Q: And the AST (9 h)?
A: 66.2 IU/L

Q: What about the BUN (9 h) of the same molecule?
A: 11.4 mg/dL

Q: What about the CRE (9 h) of the same molecule?
A: 0.4 mg/dL

Q: What about the Ca (9 h) of the same molecule?
A: 11 mg/dL

Q: And the Cl (9 h)?
A: 104.4 meq/L

Q: And the DBIL (9 h)?
A: 0.01 mg/dL

Q: And the GLC (9 h)?
A: 191.4 mg/dL

Q: What about the IP (9 h) of the same molecule?
A: 10.7 mg/dL

Q: What about the K (9 h) of the same molecule?
A: 4.9 meq/L

Q: What about the LDH (9 h) of the same molecule?
A: 145 IU/L

Q: And the Na (9 h)?
A: 138.4 meq/L

Q: And the PL (9 h)?
A: 157.4 mg/dL

Q: What about the RALB (9 h) of the same molecule?
A: 3.9 g/dL

Q: What about the TBIL (9 h) of the same molecule?
A: 0.046 mg/dL

Q: What about the TC (9 h) of the same molecule?
A: 93.2 mg/dL

Q: And the TG (9 h)?
A: 57.6 mg/dL

Q: What about the TP (9 h) of the same molecule?
A: 5.5 g/dL

Q: What about the gamma-GTP (9 h) of the same molecule?
A: 0.2 IU/L

Q: And the TERMINAL_BW (24 h)?
A: 220.4 g

Q: And the APTT (24 h)?
A: 15.9 s

Q: What about the Bas (24 h) of the same molecule?
A: 0%

Q: What about the Eos (24 h) of the same molecule?
A: 1.4%

Q: What about the Fbg (24 h) of the same molecule?
A: 237.4 mg/dL

Q: And the Hb (24 h)?
A: 12.8 g/dL

Q: What about the Ht (24 h) of the same molecule?
A: 38.4%

Q: And the Lym (24 h)?
A: 72.8%

Q: What about the MCH (24 h) of the same molecule?
A: 21.6 pg

Q: What about the MCHC (24 h) of the same molecule?
A: 33.4%

Q: What about the MCV (24 h) of the same molecule?
A: 64.8 fL

Q: What about the Mono (24 h) of the same molecule?
A: 10.4%

Q: What about the Neu (24 h) of the same molecule?
A: 15.6%

Q: What about the PT (24 h) of the same molecule?
A: 11.6 s

Q: And the Plat (24 h)?
A: 131.6 x10_4/uL

Q: What about the RBC (24 h) of the same molecule?
A: 593.2 x10_4/ul

Q: What about the Ret (24 h) of the same molecule?
A: 7.8%

Q: And the WBC (24 h)?
A: 107.2 x10_2/uL

Q: And the LIVER (24 h)?
A: 11.3 g

Q: And the A/G (24 h)?
A: 2.5

Q: What about the ALP (24 h) of the same molecule?
A: 1262 IU/L

Q: And the ALT (24 h)?
A: 38.8 IU/L

Q: And the AST (24 h)?
A: 64.8 IU/L

Q: What about the BUN (24 h) of the same molecule?
A: 14.8 mg/dL

Q: What about the CRE (24 h) of the same molecule?
A: 0.4 mg/dL

Q: And the Ca (24 h)?
A: 11.3 mg/dL

Q: What about the Cl (24 h) of the same molecule?
A: 103.2 meq/L

Q: What about the DBIL (24 h) of the same molecule?
A: 0.012 mg/dL

Q: What about the GLC (24 h) of the same molecule?
A: 193.6 mg/dL

Q: What about the IP (24 h) of the same molecule?
A: 7.3 mg/dL

Q: And the K (24 h)?
A: 4.6 meq/L

Q: What about the LDH (24 h) of the same molecule?
A: 105 IU/L

Q: And the Na (24 h)?
A: 139.4 meq/L

Q: And the PL (24 h)?
A: 159.6 mg/dL

Q: And the RALB (24 h)?
A: 4 g/dL

Q: And the TBIL (24 h)?
A: 0.034 mg/dL

Q: And the TC (24 h)?
A: 90 mg/dL

Q: And the TG (24 h)?
A: 116 mg/dL

Q: And the TP (24 h)?
A: 5.6 g/dL

Q: And the gamma-GTP (24 h)?
A: 0.4 IU/L
